Tests used:
[1] = test system: P. falciparum 3D7 asexual blood stages; test: Whole-cell time extended asexual growth assay (pLDH); format: cell-based; details: Plasmodium falciparum, 72 h; for IC50: dose response retest, read-out: IC50 (µM) Asex stages; for inhibition at 2 µM: primary screen, read-out: %Inh Asex stages @2uM
Method: Asexual activity was assayed via Plasmodium lactate dehydrogenase activity (pLDH), a surrogate of asexual parasite growth. […] 2 µM artesunate and DMSO were used as the positive and negative controls, respectively. […] After plate mixing, NBT reduction was measured by absorbance at 650 nm using Envision (Perkin Elmer).

[2] = test system: HepG2 human cells; set-up: method as in http://dx.doi.org/10.6019/CHEMBL3507680; details: ref http://dx.doi.org/10.6019/CHEMBL3507680; cited from earlier work

SMILES | IC50 [1] [µM] | inhibition at 2 µM [1] [%] | %Inh HepG2 @10uM [2] [%]
COc1cc(CNCC(O)c2ccc(F)c(F)c2)cc2c1OCO2 (stereo not drawn) [DDD00408586] | 3 | 56.7 | 29.87
CCCc1nc2c(c(C)c(C)n2CCN(C)C)c(N)c1CC [DDD01026700] | 5.25 | 39.3 | 3.64
CCc1c(-c2ccccc2)nc2c(c(C)c(C)n2CCN(C)C)c1N [DDD01026714] | 3.31 | 48.1 | 15.22
Cc1c(-c2ccccc2)nc2c(c(C)c(C)n2CCN(C)C)c1N [DDD01026725] | 4.49 | 46.1 | 13.65
CC(C)n1ncc2c1NC(=O)CC21C(=O)Nc2c(Cl)ccc(Cl)c21 (stereo not drawn) [DDD01027128] | 2.18 | 96.3 | -12.20
CC(C)Nc1nc2c(c(NC3CC3)n1)CCN(C1CCOCC1)CC2 [DDD01029612] | 3.54 | 33.7 | -3.76
CC(C)Nc1nc2c(c(NC3CC3)n1)CN(C(=O)Cc1ccsc1)CC2 [DDD01029980] | 2.5 | 33.2 | 3.26
CC(C)Nc1nc2c(c(NC3CC3)n1)CN(C(=O)c1ccsc1)CC2 [DDD01030030] | 1.15 | 58.7 | -17.20
c1cncc(-c2ccc3c(c2)CCC32CCNCC2)c1 [DDD01031368] | 3.86 | 38.8 | 17.78
Cc1nnc(N2CC[C@@H](OCC3CC3)[C@@H](Cc3ccccc3)C2)s1.O=C(O)C(F)(F)F [DDD01032950] | 2.17 | 45.4 | -7.86
CN(Cc1ccco1)C[C@H]1OC[C@@H]2CCN(Cc3ccccn3)C[C@@H]21.O=C(O)C(F)(F)F.O=C(O)C(F)(F)F.O=C(O)C(F)(F)F [DDD01033585] | 2.59 | 41 | -8.48
COc1ccc(N2CCCC3(C2)CN(c2nncs2)CCO3)cc1 (stereo not drawn) [DDD01034473] | 1.48 | 87.8 | 1.09
COc1cccc(C2SCC(=O)Nc3ccsc32)c1OC (stereo not drawn) [DDD01034924] | 5.19 | 33.1 | 1.70
Cc1[nH]/c(=N\C(=O)c2csc(NC3CCCC3)n2)sc1C [DDD01035522] | 5.98 | 32.6 | 31.16
I.c1ccc(Sc2ccc3c(c2)OCO3)c(CNC2=NCCN2)c1 [DDD01035544] | 3.12 | 30.4 | -0.79
CC(C)c1nnc2ccc(N3CCC(C(=O)Nc4nccs4)CC3)nn12 [DDD01036018] | 9.35 | 30.4 | 10.73
O=C(Nc1cnn(COc2ccc(F)cc2Cl)c1)C1CC1 [DDD01037427] | 3.65 | 46.4 | 9.89
CCN(CC)c1nc(Nc2cccc(C(C)O)c2)nc2ccccc12 (stereo not drawn) [DDD01037966] | 1.88 | 44.9 | 65.01
CC(O)c1cccc(Nc2nc(NCCO)c3ccccc3n2)c1 (stereo not drawn) [DDD01037968] | 1.67 | 41.9 | -5.65

SMILES | IC50 [1] [µM] | inhibition at 2 µM [1] [%] | %Inh HepG2 @10uM [2] [%]
Oc1ccc(Cl)cc1CNCc1ccccc1Cl [DDD01038243] | 2.29 | 49.1 | -8.63
Oc1ccc(Cl)cc1CNCc1cccc(C(F)(F)F)c1 [DDD01038245] | 1.69 | 52.7 | -12.90
Cc1ccccc1CNCc1cc(Cl)ccc1O [DDD01038246] | 1.52 | 53.9 | -11.50
COc1cccc(CNCc2cccc(Cl)c2)c1O [DDD01038248] | 3.16 | 33.1 | -4.96
COc1cccc(CNCc2ccc(F)c(Cl)c2)c1O [DDD01038250] | 1.59 | 68.7 | 27.04
COCCCNC(=O)c1cc(C(C)C)nc(N2CCCCCC2)n1 [DDD01038653] | 6.14 | 40.6 | -8.22
Cc1nn(C)c(C)c1CCn1cncc1-c1ccc2c(c1)CC(C)N2C.Cl (stereo not drawn) [DDD01056530] | 3.8 | 51 | 4.43
Cc1cccc(C)c1Nc1noc2c1CN(C(=O)c1ccnn1C)CC2 [DDD01056796] | 1.46 | 68.6 | 69.80
Cc1cccc(C)c1Nc1noc2c1CN(C(=O)c1cn(C)cn1)CC2 [DDD01056797] | 1.55 | 81.2 | 75.15
Cc1cccc(C)c1Nc1noc2c1CN(C(=O)c1ccn(C)n1)CC2 [DDD01057030] | 2 | 47.3 | 46.43
CCCNc1cc(-c2c[nH]nc2C2CCN(C(=O)C3CCC3)C2)ccn1 (stereo not drawn) [DDD01057089] | 1.85 | 43.4 | 96.64
Cl.NC1CCc2nc(-c3cccnc3)nc(Nc3ccc(F)cc3)c2C1 (stereo not drawn) [DDD01057099] | 1.37 | 68.5 | 3.41
CC(C)Nc1cc(-c2c[nH]nc2C2CCN(C(=O)C3CC3)C2)ccn1 (stereo not drawn) [DDD01057305] | 5.06 | 30.6 | 96.71
CC(C)CNc1cc(-c2c[nH]nc2C2CCN(C(=O)C3CC3)C2)ccn1 (stereo not drawn) [DDD01057306] | 3.78 | 35.1 | 95.13
CC(C)Nc1cc(-c2c[nH]nc2C2CCN(C(=O)C3CCC3)C2)ccn1 (stereo not drawn) [DDD01057307] | 2.39 | 36.2 | 95.83
CCOc1ccc(CN2CCCC(c3cc4ncccc4[nH]3)C2)cc1 (stereo not drawn) [DDD01057418] | 1.67 | 91.8 | 6.95
COCC(=O)N1CCCC(c2nc(N(C)C)ncc2-c2ccccc2)C1 (stereo not drawn) [DDD01057962] | 5.84 | 42.5 | 4.41
Cc1nn(C)cc1C1=NS(=O)(=O)N(C)C(C(=O)Nc2ccc(Cl)cc2)=C1 [DDD01058696] | 0.456 | 97.9 | 1.32
Cc1nn(C)cc1C1=NS(=O)(=O)N(C)C(C(=O)Nc2ccc(Br)cc2)=C1 [DDD01058697] | 0.366 | 98 | 0.0552

SMILES | IC50 [1] [µM] | inhibition at 2 µM [1] [%] | %Inh HepG2 @10uM [2] [%]
Cl.Fc1ccc(F)c(CN2CCC(c3cc4ncccc4cn3)CC2)c1 [DDD01058752] | 1.79 | 62.6 | 4.59
Cl.Fc1cccc(CN2CCC(c3cc4ncccc4cn3)CC2)c1F [DDD01058754] | 1.64 | 33.2 | 4.71
COc1ccc(C)cc1CN1CCC(c2cc3ncccc3cn2)CC1.Cl [DDD01058767] | 0.853 | 97.7 | 105.03
Cc1cc(CN2CCc3nc(-c4ccncc4)nc(O)c3CC2)c(C)s1 [DDD01058881] | 2.2 | 77.5 | -7.80
CN(C)CCN(C)C(=O)Cn1cccc2cc(-c3ccc(F)cc3)nc1-2 [DDD01059044] | 1.29 | 97 | 4.32
CCN1c2ccc(-c3cncn3CC(=O)NC(C)(C)C)cc2CC1C.Cl (stereo not drawn) [DDD01059258] | 2.95 | 82.1 | -7.81
c1ccc(-c2cc(CNCCN3CCCC3)c3nnnn3c2)cc1 [DDD01059599] | 1.55 | 79.4 | -3.47
COc1ccc(F)c(CN(CCCn2ccnc2)Cc2ccc(C)s2)c1.O=C(O)CC(O)(CC(=O)O)C(=O)O [DDD01059675] | 8.49 | 33.8 | 45.48
CN(CCCOc1ccccc1)C(=O)c1csc(-c2nnc[nH]2)n1 [DDD01061692] | 2.03 | 34.8 | -5.84
Clc1ccc(C2(CNC3=NCCN3)CC2)cc1.I [DDD01067441] | 1.95 | 40.6 | 10.02
COc1cc(C)sc1C(=O)NCCNc1ccccc1 [DDD01067535] | 2.4 | 41.9 | 11.25
COc1cc2nc(NCc3ccc(C)nc3)nc(N)c2cc1OC [DDD01069328] | 2.24 | 58 | -5.25
Clc1cccc(CNC2CCN(CCc3ccncc3)CC2)c1 [DDD01069722] | 2.28 | 57.5 | 0.53
COc1ccccc1CN(C)C(=O)CN1CC(n2nc(C)cc2C)C1 [DDD01071519] | 2.5 | 44.4 | -2.12
COc1ccc(C(=O)NCCCOC(C)c2ccccc2)c(OC)c1 (stereo not drawn) [DDD01071935] | 2.68 | 41.6 | -11.10
CCC(=O)NCC(c1ccc(SC)cc1)N1CCc2sccc2C1 (stereo not drawn) [DDD01071943] | 2.03 | 64.5 | -8.32
CN(C)c1ccnc(N2CCC(NCCOc3ccccc3)CC2)n1 [DDD01072965] | 7.83 | 30.8 | 19.60
CCOCC1CCN(C(=O)Nc2ccc3c(c2)CCCN3C)C1 (stereo not drawn) [DDD01073381] | 1.9 | 31.9 | -10.40

Reference: publication PMC6143625, “A high throughput screen for next-generation leads targeting malaria parasite transmission” (Nature Communications, 2018)
